Results published in patent US20250011292A1, “NOVEL RHODANINE DERIVATIVES AND USES THEREOF” (priority 2021, published 2025).
Like-named read-outs stand apart in the source and are kept apart here.

What was measured:
[1] = tested on: HeLa cells; assay: Light-induced and dark cytotoxicity, CCK-8 assay, HeLa cells; format: cell-based; settings: light energy 1.8 J/cm^2
[2] = tested on: HeLa cells; assay: as above; format: cell-based; settings: for IC50: 24 hours, mean ± SD; for light-induced (photo-induced) cytotoxicity (in words): with or without blue light irradiation
Procedure: (§1) HeLa cells and MCF-7 cells were purchased from ATCC (Manassas, VA). HeLa cells were cultured in high glucose DMEM culture medium (Sigma-Aldrich; St. Louis, MO) with glutamine, without sodium pyruvate, and supplemented with 10% fetal bovine serum (FBS) and 1% penicillin and […]. MCF-7 cells were cultured in MEM culture medium (Sigma-Aldrich) supplemented with 10% FBS and 1% penicillin and […]. Cells were incubated in 37° C. incubator with 5% CO2. Under dim light, compounds were dissolved in DMSO to form 20 mM stock solution and serially diluted in 96-well plate with full culture medium to form the working solution with DMSO concentration being 0.5% in all wells. HeLa and MCF-7 cells were seeded in 96-well plate at a density of 10^5/100 μL/well and incubated overnight, and then the culture medium was replaced with 100 μL of the compound-loaded working solution. The dark treatment group was kept in the incubator for 24 hours. The exposure treatment group was allowed to incubate for 30 minutes, followed by exposure with blue light for the designated time (5 min for 0.45 J/cm^2). After exposure, cells were returned to the incubator and incubated for 24 hours. 10 μL CCK-8 solution (Dojindo, Japan) was added to the cells in each well and incubated for 2 hours. The optical density at 450 nm of each well was read with the Perkin-Elmer Vector 3 plate reader (USA). Cells treated with 0.5% DMSO were used as the vehicle control and 100 μL culture medium with 10 μL CCK-8 was used as the blank control. Cell viability was calculated as: […]
(§2) All tests were in triplicate, and the IC50 was calculated with non-linear regression of concentration and cell viability by Graphpad Prism.
BW-PS-101 was incubated with cervical carcinoma HeLa cell line under darkness. After incubation for 30 min to facilitate internalization, cells were exposed to a low-power blue LED array (470 nm, 1.5 mW/cm^2, as described above) for 5 minutes (total irradiation energy 0.45 J/cm^2) and incubated for an additional 24 hours under darkness followed by cell viability determination with CCK-8 assay.

[3] = tested on: MCF-7 cells; assay: Light-induced and dark cytotoxicity, CCK-8 assay, MCF-7 cells; format: cell-based; settings: 24 hours, mean ± SD
Procedure: FIGS. 3A-3K are graphs showing the dose response of compounds as described herein in MCF-7 cells. […] The cells were treated and allowed the incubate for 24 hours (labeled in the figures as the compound name followed by “DARK”) or were treated, incubated for 30 minutes, exposed to light for a designated time, and then incubated for 24 hours (labeled in the figures as the compound name followed by “EXPO”).
as §1, §2
Additional compounds as described herein were tested. […] Light-induced cytotoxicity was then evaluated. […] PS-107, a compound with the furan ring replaced by phenyl, was synthesized as the structural mimetic control. […] All compounds were also tested against MCF-7 breast cancer cell line, which gave a similar trend of activity (Table 4).

[4] = Quantum yield ϕΔ in MeOH; format: physicochemical
[5] = tested on: early endosomes; assay: Fluorescence microscopy, endosome localization; format: cell-based; settings: for accumulation / enrichment in endosomes: fluorescence microscopy / imaging studies
Procedure: FIG. 8 are fluorescence microscopy images of BW-PS-105 (first row), BW-PS-110 (second row), and BW-PS-120 (third row) localized in early endosomes.
The trimethoxy substituted analog BW-PS-105, which was fluorescent with an Ex/Em wavelength of 491 nm/574 nm, was incubated with HeLa cell at a concentration of 1 μM. […] Endosome enrichment of the photosensitizer led to the potency increase of about 5 folds. Targeting photosensitizers to the endosome efficiently induces cancer cell apoptosis by photodynamic therapy.

[6] = tested on: SARS-CoV-2; assay: Inhibition of SARS-CoV-2 replication in infected Huh7 cells; format: cell-based; settings: read-out: EC50, inhibition of viral replication against SARS-COV-2
Procedure: FIGS. 1A-1C are graphs showing the inhibition of SARS-CoV-2 replication in Huh-7 cells by BW-PS-108 (FIG. 1A), BW-PS-109 (FIG. 1B), and Compound 136 (FIG. 1C). The top line in FIGS. 1A and 1B represent cytotoxicity. Cell pellets from infected cells were collected at 48 hours after infection and viral RNA levels were measured by RT-PCR.
No solubility issues were encountered when studying their toxicity at 100 μM.
The potency levels of the compounds described herein compare favorably against remdesivir and molnupiravir. […] Further, the potency levels of the compounds described herein were also higher than Compound 136.

[7] = Homo sapiens, HeLa, light or radiation study, blue light, exposure light energy density 0.45 J/cm^2, read-out: Hela cells Exposure IC50
[8] = Homo sapiens, HeLa, dark, read-out: Hela cells Dark IC50
[9] = Homo sapiens, MCF7, light or radiation study, blue light, exposure light energy density 0.45 J/cm^2, read-out: MCF-7 cells Exposure IC50
[10] = Homo sapiens, MCF7, dark, read-out: MCF-7 cells Dark IC50
[11] = blue light, exposure light energy density 0.45 J/cm^2, read-out: Hela cells Exposure IC50
[12] = dark, read-out: Hela cells Dark IC50
[13] = viral RNA by RT-PCR 48 hours after infection
[14] = blue light, exposure light energy density 0.45 J/cm^2, read-out: MCF-7 cells Exposure IC50
[15] = dark, read-out: MCF-7 cells Dark IC50

CCCN1C(=O)/C(=C/c2ccc(-c3ccccc3)o2)SC1=S [BW-PS-101, (Z)-5-((5-phenylfuran-2-yl)methylene)-3-propyl-2-thioxothiazolidin-4-one]
IC50 in the HeLa cell at higher light energy [1]: submicromolar range
cytotoxicity of cells treated in the dark (in words) ([2]; HeLa, dark, up to 100 μM): did not show any cytotoxicity
IC50 [2, 7]: 1380 ± 50 nM
IC50 [2, 8]: > 100000 nM
IC50 [3, 9]: 740 ± 140 nM
IC50 [3, 10]: > 100000 nM
ϕΔ MeOH) [4]: 0.109

CCCN1C(=O)/C(=C/c2ccc(-c3ccc(F)cc3)o2)SC1=S [BW-PS-102, (Z)-5-((5-(4-fluorophenyl)furan-2-yl)methylene)-3-propyl-2-thioxothiazolidin-4-one]
IC50 [2, 7]: 1480 ± 140 nM
IC50 [2, 8]: > 100000 nM
light-induced (photo-induced) cytotoxicity (in words) [2]: comparable activity as BW-PS-101
IC50 [3, 9]: 1260 ± 4 nM
IC50 [3, 10]: > 100000 nM
ϕΔ MeOH) [4]: 0.075

CCCN1C(=O)/C(=C/c2ccc(-c3ccc(O)cc3)o2)SC1=S [BW-PS-103, (Z)-5-((5-(4-hydroxyphenyl)furan-2-yl)methylene)-3-propyl-2-thioxothiazolidin-4-one]
IC50 [2, 7]: 3580 ± 130 nM
IC50 [2, 8]: > 100000 nM
IC50 [3, 9]: 4250 ± 170 nM
IC50 [3, 10]: ~100000 nM
ϕΔ MeOH) [4]: 0.007

CCCN1C(=O)/C(=C/c2ccc(-c3ccc(OC)cc3)o2)SC1=S [BW-PS-104, (Z)-5-((5-(4-methoxyphenyl)furan-2-yl)methylene)-3-propyl-2-thioxothiazolidin-4-one]
IC50 [2, 7]: 2710 ± 230 nM
IC50 [2, 8]: > 100000 nM
IC50 [3, 9]: 2870 ± 920 nM
IC50 [3, 10]: > 100000 nM
ϕΔ MeOH) [4]: 0.015

CCCN1C(=O)/C(=C/c2ccc(-c3cc(OC)c(OC)c(OC)c3)o2)SC1=S [BW-PS-105, (Z)-3-propyl-2-thioxo-5-((5-(3,4,5-trimethoxyphenyl)furan-2-yl)methylene)thiazolidin-4-one]
accumulation / enrichment in endosomes [5]: accumulation
IC50 [2, 7]: 2130 ± 300 nM
IC50 [2, 8]: > 100000 nM
IC50 [3, 9]: 2710 ± 780 nM
IC50 [3, 10]: > 100000 nM
ϕΔ MeOH) [4]: 0.028

CCCN1C(=O)/C(=C/c2ccc(-c3ccc(C(F)(F)F)cc3)o2)SC1=S [BW-PS-106, (Z)-3-propyl-2-thioxo-5-((5-(4-(trifluoromethyl)phenyl)furan-2-yl)methylene)thiazolidin-4-one]
IC50 [2, 7]: 2960 ± 90 nM
IC50 [2, 8]: > 100000 nM
IC50 [3, 9]: 2580 ± 730 nM
IC50 [3, 10]: > 100000 nM
ϕΔ MeOH) [4]: 0.182

CCCN1C(=O)/C(=C/c2cccc(-c3ccc(F)cc3)c2)SC1=S [BW-PS-107, (Z)-5-((4′-fluoro-[1,1′-biphenyl]-3-yl)methylene)-3-propyl-2-thioxothiazolidin-4-one]
IC50 [2, 7]: > 100000 nM
light-induced (photo-induced) cytotoxicity (in words) [2]: did not show any photo-induced cytotoxicity
IC50 [3, 9]: > 100000 nM

O=C1C(=Cc2ccc(-c3ccccc3)o2)SC(=S)N1CCN1CCOCC1 [BW-PS-108]
IC50 [2, 11]: 950 ± 20 nM
IC50 [2, 12]: > 100000 nM
EC50 [6, 13]: 280 nM
IC50 [3, 14]: 1220 ± 10 nM
IC50 [3, 15]: > 100000 nM
ϕΔ MeOH) [4]: 0.086

O=C1C(=Cc2ccc(-c3ccc(C(F)(F)F)cc3)o2)SC(=S)N1CCN1CCOCC1 [BW-PS-109]
IC50 [2, 11]: 630 ± 70 nM
IC50 [2, 12]: > 100000 nM
EC50 [6, 13]: 190 nM
IC50 [3, 14]: 530 ± 90 nM
IC50 [3, 15]: > 100000 nM
ϕΔ MeOH) [4]: 0.115

COc1cc(-c2ccc(C=C3SC(=S)N(CCN4CCOCC4)C3=O)o2)cc(OC)c1OC [BW-PS-110]
co-localization with the endosome marker CellularLight endosomes-GFP ([5]; fluorescence microscopy): good co-localization
accumulation / enrichment in endosomes [5]: accumulation
IC50 [2, 11]: 1740 ± 160 nM
IC50 [2, 12]: > 100000 nM
IC50 [3, 14]: 1250 ± 170 nM
IC50 [3, 15]: > 100000 nM

N.N.[Cl][Pt][Cl] [Cisplatin, cisplatin, reference compound]
IC50 [2, 11]: 5950 ± 170 nM
IC50 [2, 12]: 7540 ± 450 nM
IC50 [3, 14]: 13300 ± 1450 nM
IC50 [3, 15]: 12500 ± 2860 nM

CCC(CC)COC(=O)[C@H](C)N[P@](=O)(OC[C@H]1O[C@@](C#N)(c2ccc3c(N)ncnn23)[C@H](O)[C@@H]1O)Oc1ccccc1 [remdesivir, reference compound]
EC50 ([6]; Severe acute respiratory syndrome coronavirus 2, Huh-7, viral RNA by RT-PCR 48 hours after infection): 700 nM
